{"source": "patent US7482144B2", "about": "“Method for the production of xylitol” (priority 2000, dated 2009)", "tested_on": "β-xylosidase", "experiment": "Possible inhibiting effect of xylitol on β-xylosidase", "assay_type": "biochemical", "experimental": "300 nkat concentrated β-xylosidase was incubated with 0, 1, 5, 10, 50, 100, 200 and 300 g/l of xylitol at 28° C. Samples were taken after 0, 0.5, 1, 2, 4, 6, 8, 24, 48 and 72 hours incubation and stored at −20° C. The activity of β-xylosidase was measured as described in Poutanen and Puls (1988) Appl. Microbiol. Biotechnol. 28:425-432. The activity of β-xylosidase remained stable in all the samples taken and thus it is not inhibited by xylitol."}
{"smiles": "OC[C@@H](O)[C@H](O)[C@@H](O)CO", "note": "[xylitol]", "values": [{"measurement": "Inhibition of β-xylosidase activity by xylitol", "setting": "300 nkat β-xylosidase, 0-300 g/l xylitol, 28° C., 0-72 hours", "result": "not inhibited"}, {"measurement": "Inhibition of xylanolytic activity by xylitol", "setting": "studies conducted so far", "result": "has not been shown to inhibit"}]}
